Reference: patent US7807676B2, “Diketo-Piperazine and Piperidine derivatives as antiviral agents” (priority 2006, dated 2010)
Where a name gives a salt, the structure may show the parent alone.

Each compound was assayed on HIV-1 single-round infectious reporter virus (assay: Single-round infectious HIV-1 luciferase reporter virus infection of HeLa CD4 cells (antiviral EC50)). Details: Human immunodeficiency virus 1, HeLa, read-out: EC50 Group from Table 3.
Assay type: cell-based
Method: • Virus production—Human embryonic Kidney cell line, 293T, was propagated in Dulbecco's Modified Eagle Medium (Invitrogen, Carlsbad, Calif.) containing 10% fetal Bovine serum (FBS, Sigma, St. Louis, Mo.). • Virus infection—Human epithelial cell line, HeLa, expressing the HIV-1 receptor CD4 was propagated in Dulbecco's Modified Eagle Medium (Invitrogen, Carlsbad, Calif.) containing 10% fetal Bovine serum (FBS, Sigma, St. Louis, Mo.) and supplemented with 0.2 mg/mL Geneticin (Invitrogen, Carlsbad, Calif.). Virus-Single-round infectious reporter virus was produced by co-transfecting human embryonic Kidney 293 cells with an HIV-1 envelope DNA expression vector and a proviral cDNA containing an envelope deletion mutation and the luciferase reporter gene inserted in place of HIV-1 nef sequences (Chen et al, Ref. 41). Transfections were performed using lipofectAMINE PLUS reagent as described by the manufacturer (Invitrogen, Carlsbad, Calif.). Experiment • 1. HeLa CD4 cells were plated in 96 well plates at a cell density of 1×10^4 cells per well in 100 μl Dulbecco's Modified Eagle Medium containing 10% fetal Bovine serum and incubated overnight. • 2. Compound was added in a 2 μl dimethylsulfoxide solution, so that the final assay concentration would be ≦10 μM. • 3. 100 μl of single-round infectious reporter virus in Dulbecco's Modified Eagle Medium was then added to the plated cells and compound at an approximate multiplicity of infection (MOI) of 0.01, resulting in a final volume of 200 μl per well. • 4. Virally-infected cells were incubated at 37 degrees Celsius, in a CO2 incubator, and harvested 72 h after infection. • 5. Viral infection was monitored by measuring luciferase expression from viral DNA in the infected cells using a luciferase reporter gene assay kit, as described by the manufacturer (Roche Molecular Biochemicals, Indianapolis, Ind.). Infected cell supernatants were removed and 50 μl of lysis buffer was added per well. After 15 minutes, 50 μl of freshly-reconstituted luciferase assay reagent was added per well. Luciferase activity was then quantified by measuring luminescence using a Wallac microbeta scintillation counter. • 6. The percent inhibition for each compound was calculated by quantifying the level of luciferase expression in cells infected in the presence of each compound as a percentage of that observed for cells infected in the absence of compound and subtracting such a determined value from 100. • 7. An EC50 provides a method for comparing the antiviral potency of the compounds of this disclosure. The effective concentration for fifty percent inhibition (EC50) was calculated with the Microsoft Excel Xlfit curve fitting software. For each compound, curves were generated from percent inhibition calculated at 10 different concentrations by using a four parameter logistic model (model 205). Table 3 is the key for the data in Table 4. Results

SMILES | EC50 [nM]
COc1cnc(-c2cnccn2)c2[nH]cc(C(=O)C(=O)N3CCN(c4nncn4-c4ccccc4)CC3)c12 [A-57] | < 500
COc1cnc(-n2ccnn2)c2[nH]cc(C(=O)C(=O)N3C(C)CN(c4nnnn4-c4ccccc4)CC3C)c12 (stereo not drawn) [A-58] | < 500
COc1cnc(-n2ccnn2)c2[nH]cc(C(=O)C(=O)N3CCN(c4nnnn4-c4ccccn4)CC3)c12 [A-59] | < 500
COc1cnc(-n2cnc(C)n2)c2[nH]cc(C(=O)C(=O)N3CCN(c4nnnn4-c4ccccc4)[C@@H](C)C3)c12 [A-60] | < 500
C[C@H]1CN(C(=O)C(=O)c2c[nH]c3c(-n4ccnn4)ncc(F)c23)CCN1c1nnnn1-c1ccccc1 [A-61] | < 500
CCOc1cccnc1N1CCN(C(=O)C(=O)c2c[nH]c3c(-n4ccnn4)ncc(F)c23)CC1 [A-62] | < 500
CCOc1cccnc1N1CCN(C(=O)C(=O)c2c[nH]c3c(-n4cnc(C)n4)ncc(OC)c23)CC1 [A-63] | < 500
COc1cnc(-c2ncc(OC)c3c(C(=O)C(=O)N4CCN(c5nnnn5-c5ccccc5)CC4)c[nH]c23)c2[nH]ccc12 [A-64] | < 500
COc1cnc(-n2cnc(C)n2)c2[nH]cc(C(=O)C(=O)N3CCN(c4ncccc4C(O)c4nccs4)CC3)c12 (stereo not drawn) [A-66] | < 500
O=C(c1nccs1)c1cccnc1N1CCN(C(=O)C(=O)c2c[nH]c3cccc(F)c23)CC1 [A-67] | > 500
CCc1ncn(-c2ncc(OC)c3c(C(=O)C(=O)N4CCN(c5ncccc5C(=O)c5nccs5)CC4)c[nH]c23)n1 [A-68] | < 500
CCc1ncn(-c2ncc(OC)c3c(C(=O)C(=O)N4CCN(c5nnnn5-c5ccccn5)CC4)c[nH]c23)n1 [A-69] | < 500
CCc1ncn(-c2ncc(OC)c3c(C(=O)C(=O)N4CCN(c5nnnn5-c5ccccc5)CC4)c[nH]c23)n1 [A-70] | < 500
O=C(C(=O)N1[C@@H]2CC[C@H]1CN(c1nnnn1-c1ccccc1)C2)c1c[nH]c2c(-n3ccnn3)ncc(F)c12 [A-71] | < 500
O=C(C(=O)N1C[C@@H]2CC[C@H]1CN2c1nnnn1-c1ccccc1)c1c[nH]c2c(-n3ccnn3)ncc(F)c12 [A-72] | < 500
COc1cnc(-n2cnc(C)n2)c2[nH]cc(C(=O)C(=O)N3[C@H](C)CN(c4nnnn4-c4ccccc4)C[C@@H]3C)c12 [A-73] | < 500
O=C(C(=O)N1C[C@@H]2C[C@H]1CN2c1nnnn1-c1ccccc1)c1c[nH]c2c(-n3ccnn3)ncc(F)c12 [A-74] | > 500

SMILES | EC50 [nM]
Cc1ccnn1-c1ncc(F)c2c(C(=O)C(=O)N3CCN(c4nnnn4-c4ccccc4)CC3)c[nH]c12 [B-3, 1-(4-fluoro-7-(5-methyl-1H-pyrazol-1-yl)-1H-pyrrolo[2,3-c]pyridin-3-yl)-2-(4-(1-phenyl-1H-tetrazol-5-yl)piperazin-1-yl)ethane-1,2-dione] | < 500
Nc1ccn(-c2ncc(F)c3c(C(=O)C(=O)N4CCN(c5nnnn5-c5ccccc5)CC4)c[nH]c23)n1 [B-4, 1-(7-(3-amino-1H-pyrazol-1-yl)-4-fluoro-1H-pyrrolo[2,3-c]pyridin-3-yl)-2-(4-(1-phenyl-1H-tetrazol-5-yl)piperazin-1-yl)ethane-1,2-dione] | < 500
Nc1ccnn1-c1ncc(F)c2c(C(=O)C(=O)N3CCN(c4nnnn4-c4ccccc4)CC3)c[nH]c12 [B-5, 1-(7-(5-amino-1H-pyrazol-1-yl)-4-fluoro-1H-pyrrolo[2,3-c]pyridin-3-yl)-2-(4-(1-phenyl-1H-tetrazol-5-yl)piperazin-1-yl)ethane-1,2-dione] | < 500
COc1cnc(-c2cc(C(=O)NCCO)[nH]n2)c2[nH]cc(C(=O)C(=O)N3CCN(c4nnnn4-c4ccccc4)CC3)c12 [B-8, N-(2-hydroxyethyl)-3-(4-methoxy-3-(2-oxo-2-(4-(1-phenyl-1H-tetrazol-5-yl)piperazin-1-yl)acetyl)-1H-pyrrolo[2,3-c]pyridin-7-yl)-1H-pyrazole-5-carboxamide.TFA] | < 500
COc1cnc(-c2cc(C(=O)NCCOCCO)[nH]n2)c2[nH]cc(C(=O)C(=O)N3CCN(c4nnnn4-c4ccccc4)CC3)c12 [B-9, N-(2-(2-hydroxyethoxy)ethyl)-3-(4-methoxy-3-(2-oxo-2-(4-(1-phenyl-1H-tetrazol-5-yl)piperazin-1-yl)acetyl)-1H-pyrrolo[2,3-c]pyridin-7-yl)-1H-pyrazole-5-carboxamide.TFA] | < 500
COc1cnc(-c2cc(C(=O)NCCCN3CCN(C)CC3)[nH]n2)c2[nH]cc(C(=O)C(=O)N3CCN(c4nnnn4-c4ccccc4)CC3)c12 [B-10, 3-(4-methoxy-3-(2-oxo-2-(4-(1-phenyl-1H-tetrazol-5-yl)piperazin-1-yl)acetyl)-1H-pyrrolo[2,3-c]pyridin-7-yl)-N-(3-(4-methylpiperazin-1-yl)propyl)-1H-pyrazole-5-carboxamide.TFA] | < 500
COc1cnc(-c2cc(C(=O)NCCN3CCCC3)[nH]n2)c2[nH]cc(C(=O)C(=O)N3CCN(c4nnnn4-c4ccccc4)CC3)c12 [B-11, 3-(4-methoxy-3-(2-oxo-2-(4-(1-phenyl-1H-tetrazol-5-yl)piperazin-1-yl)acetyl)-1H-pyrrolo[2,3-c]pyridin-7-yl)-N-(2-(pyrrolidin-1-yl)ethyl)-1H-pyrazole-5-carboxamide.TFA] | < 500
COc1cnc(-c2cc(C(=O)NCCc3ccncc3)[nH]n2)c2[nH]cc(C(=O)C(=O)N3CCN(c4nnnn4-c4ccccc4)CC3)c12 [B-12, 3-(4-methoxy-3-(2-oxo-2-(4-(1-phenyl-1H-tetrazol-5-yl)piperazin-1-yl)acetyl)-1H-pyrrolo[2,3-c]pyridin-7-yl)-N-(2-(pyridin-4-yl)ethyl)-1H-pyrazole-5-carboxamide.TFA] | < 500
COc1cnc(-c2cc(C(=O)NCCN3CCOCC3)[nH]n2)c2[nH]cc(C(=O)C(=O)N3CCN(c4nnnn4-c4ccccc4)CC3)c12 [B-13, 3-(4-methoxy-3-(2-oxo-2-(4-(1-phenyl-1H-tetrazol-5-yl)piperazin-1-yl)acetyl)-1H-pyrrolo[2,3-c]pyridin-7-yl)-N-(2-morpholinoethyl)-1H-pyrazole-5-carboxamide.TFA] | < 500
COc1cnc(-c2cc(C(=O)NCCN3CCNCC3)[nH]n2)c2[nH]cc(C(=O)C(=O)N3CCN(c4nnnn4-c4ccccc4)CC3)c12 [B-14, 3-(4-methoxy-3-(2-oxo-2-(4-(1-phenyl-1H-tetrazol-5-yl)piperazin-1-yl)acetyl)-1H-pyrrolo[2,3-c]pyridin-7-yl)-N-(2-(piperazin-1-yl)ethyl)-1H-pyrazole-5-carboxamide.TFA] | < 500
COc1cnc(-c2cc(C(=O)NCCCN(C)C)[nH]n2)c2[nH]cc(C(=O)C(=O)N3CCN(c4nnnn4-c4ccccc4)CC3)c12 [B-15, N-(3-(dimethylamino)propyl)-3-(4-methoxy-3-(2-oxo-2-(4-(1-phenyl-1H-tetrazol-5-yl)piperazin-1-yl)acetyl)-1H-pyrrolo[2,3-c]pyridin-7-yl)-1H-pyrazole-5-carboxamide.TFA] | < 500
COc1cnc(-c2cc(C(=O)NCCN(C)C)[nH]n2)c2[nH]cc(C(=O)C(=O)N3CCN(c4nnnn4-c4ccccc4)CC3)c12 [B-16, N-(2-(dimethylamino)ethyl)-3-(4-methoxy-3-(2-oxo-2-(4-(1-phenyl-1H-tetrazol-5-yl)piperazin-1-yl)acetyl)-1H-pyrrolo[2,3-c]pyridin-7-yl)-1H-pyrazole-5-carboxamide.TFA] | < 500
Nc1ncc(F)c2c(C(=O)C(=O)N3CCN(c4nnnn4-c4ccccc4)CC3)c[nH]c12 [B-17, 1-(7-amino-4-fluoro-1H-pyrrolo[2,3-c]pyridin-3-yl)-2-(4-(1-phenyl-1H-tetrazol-5-yl)piperazin-1-yl)ethane-1,2-dione] | < 500
CC(=O)Nc1ncc(F)c2c(C(=O)C(=O)N3CCN(c4nnnn4-c4ccccc4)CC3)c[nH]c12 [B-18, N-(4-fluoro-3-(2-oxo-2-(4-(1-phenyl-1H-tetrazol-5-yl)piperazin-1-yl)acetyl)-1H-pyrrolo[2,3-c]pyridin-7-yl)acetamide] | > 500
CN(C)C(=O)Nc1ncc(F)c2c(C(=O)C(=O)N3CCN(c4nnnn4-c4ccccc4)CC3)c[nH]c12 [B-19, 3-(4-fluoro-3-(2-oxo-2-(4-(1-phenyl-1H-tetrazol-5-yl)piperazin-1-yl)acetyl)-1H-pyrrolo[2,3-c]pyridin-7-yl)-1,1-dimethylurea] | < 500
CN(C)C(=O)C(=O)Nc1ncc(F)c2c(C(=O)C(=O)N3CCN(c4nnnn4-c4ccccc4)CC3)c[nH]c12 [B-20, N^1-(4-fluoro-3-(2-oxo-2-(4-(1-phenyl-1H-tetrazol-5-yl)piperazin-1-yl)acetyl)-1H-pyrrolo[2,3-c]pyridin-7-yl)-N^2,N^2-dimethyloxalamide] | < 500
